The record followed here is patent US10246448B2, “4-hydroxy-2-phenyl-1,3-thiazol-5-yl methanone derivatives as TRPM8 antagonists” (DOMPÉ FARMACEUTICI S.P.A., priority 2015, dated 2019).

The nature of data set [1]: Metabolic stability in rat microsomes, Phase II assay. Format: in vitro ADME. The settings on record: pH 7.4; rat liver microsomes 0.5 mg/mL, Alamethicin activated, UDPGA, compound 1 μM, 37° C.; read-out: Metabolic Stability (t1/2, min) Phase2. The protocol: Rat liver microsomes (0.5 mg/mL final conc.) were incubated in ice for 15 min in 50 mM potassium phosphate buffer pH 7.4, 3 mM MgCl2 and activated with Alamethicin 50 μg/mg microsomal protein. Samples were transferred at 37° C. and compounds 1, 2, 8 and 9, dissolved in DMSO, were added in duplicate at the final concentration of 1 μM. After 5 min, reaction is started by adding 25 μl of UDPGA (16.15 mg/ml in 0.2% Sodium Bicarbonate). Samples were taken at time 0, 10, 20, 30 and 60 min added to 150 μl of acetonitrile with Verapamil 0.02 uM as Internal Standard (IS) to stop the reaction. After centrifugation the supernatants were analysed by LC-MS/MS. 7-Hydroxycoumarin was added as reference standard.

Data set [2] concerns the target T1, human TRPM8 (Homo sapiens, UniProt Q7Z2W7). Nature of the data set: In vitro TRPM8 assay: intracellular calcium levels, Ca2+ sensitive fluorescent dye (FLIPR), agonist Icilin or Cooling Agent 10. The class given is cell-based. The arrangement: expressed in transfected cells. Particulars: HEK-293 cells stably expressing human TRPM8. As for the experimental part: The TRPM8 antagonistic activity of all 26 compounds was determined by measuring changes in intracellular calcium levels using a Ca^+2 sensitive fluorescent dye. The experiments were performed using HEK-293 cells stably expressing the human TRPM8. Cells were seeded 10000 cells/well in 384 plates coated by Poly-D-Lysine MATRIX black/clear bottom (Thermo Scientific, Waltham, Mass. USA) in complete medium and grown overnight at 37° C., 5% CO2. 24 h after seeding, cell culture media was removed, cells were washed with Tyrode's assay buffer and then loaded with the fluorescent Ca^+2 indicator Fluo-4 NW dye (Molecular Probes, Life Technologies, Paisley, UK) supplemented with water-soluble Probenecid (Molecular Probes). Dye loaded cell plates were incubated for 1 h at room temperature. The compounds or vehicle were added and the kinetic response was monitored by a fluorimetric imaging plate ([…]; Molecular Devices, Sunnyvale, Calif., USA) over a period of five minutes (300 seconds). A second injection 5 minutes later of the reference agonist Cooling Agent 10 or Icilin at EC80 concentration was performed. The signal of the emitted fluorescence was recorded during additional three minutes. Data were analyzed by Spotfire DecisionSite version 9.1.1. The bioactivity exerted by the compounds or vehicle was expressed as a percent inhibition and IC50 values were then calculated.
A general note: Calcium assays in cells follow changes in intracellular calcium, usually with a dye or a luminescent sensor.

The nature of data set [3]: Metabolic stability in rat microsomes, Phase I assay. Format: in vitro ADME. The settings on record: pH 7.4; rat liver microsomes 0.5 mg/ml, compound 1 μM, NADP cofactors mixture, 37° C.; read-out: Metabolic Stability (t1/2, min) Phase1. As for the experimental part:
Compounds 1, 2, 8 and 9 in duplicate were dissolved in DMSO and pre-incubated, at the final concentration of 1 μM, for 10 min at 37° C. in potassium phosphate buffer 50 mM pH 7.4, 3 mM MgCl2, with rat liver microsomes (Xenotech) at the final concentration of 0.5 mg/ml.
After the pre-incubation period, reactions were started by adding the cofactors mixture (NADP, Glc6P, Glc6P-DH in 2% Sodium bicarbonte); samples (50 μl) were taken at time 0, 10, 20, 30 and 60 min added to 150 μl of acetonitrile with Verapamil 0.02 μM as Internal Standard (IS) to stop the reaction. After centrifugation the supernatants were analysed by LC-MS/MS.
A control sample without cofactors was added in order to check the stability of test compounds in the matrix after 60 min. 7-Ethoxycoumarin and propranolol were added as reference standards.
Background: Liver microsomes are vesicles of endoplasmic reticulum, rich in cytochrome P450 enzymes.

Data set [4] has as its target T1, human TRPM8. The data set can be described thus: In vitro cold stimulation assay.
Protocol: The TRPM8 antagonisticic activity of all 26 compounds was determined in an in vitro cold stimulation assay.
3-4 days after seeding (˜80% confluent cells), the medium was removed and cells were loaded by a solution of Screen Quest™ Fluo-8 NW dye (ABS Bioquest, Sunnyvale, Calif., USA) in the dark. Dye-loaded cell flasks were incubated for 45 minutes at room temperature in the dark and the Fluo-8 NW solution was then removed and cells were seeded in the 96 Assay Plates (MicroAmp™ Optical 96-Well Reaction Plates; Applied Biosystems, Life technologies) at 100,000 cells/'well (20 μl/well). […] All data point determinations were performed in duplicate before a mean value was calculated, including error bars representing the standard error of the mean.
[5] abbreviates: agonist Cooling Agent 10 at EC80, read-out: Ca2+ (IC50 μM) Cool 10.
Where [6] appears, read: agonist Icilin at EC80, read-out: Ca2+ (IC50 μM) Icilin.

T1 sequence (Q7Z2W7 whole entry): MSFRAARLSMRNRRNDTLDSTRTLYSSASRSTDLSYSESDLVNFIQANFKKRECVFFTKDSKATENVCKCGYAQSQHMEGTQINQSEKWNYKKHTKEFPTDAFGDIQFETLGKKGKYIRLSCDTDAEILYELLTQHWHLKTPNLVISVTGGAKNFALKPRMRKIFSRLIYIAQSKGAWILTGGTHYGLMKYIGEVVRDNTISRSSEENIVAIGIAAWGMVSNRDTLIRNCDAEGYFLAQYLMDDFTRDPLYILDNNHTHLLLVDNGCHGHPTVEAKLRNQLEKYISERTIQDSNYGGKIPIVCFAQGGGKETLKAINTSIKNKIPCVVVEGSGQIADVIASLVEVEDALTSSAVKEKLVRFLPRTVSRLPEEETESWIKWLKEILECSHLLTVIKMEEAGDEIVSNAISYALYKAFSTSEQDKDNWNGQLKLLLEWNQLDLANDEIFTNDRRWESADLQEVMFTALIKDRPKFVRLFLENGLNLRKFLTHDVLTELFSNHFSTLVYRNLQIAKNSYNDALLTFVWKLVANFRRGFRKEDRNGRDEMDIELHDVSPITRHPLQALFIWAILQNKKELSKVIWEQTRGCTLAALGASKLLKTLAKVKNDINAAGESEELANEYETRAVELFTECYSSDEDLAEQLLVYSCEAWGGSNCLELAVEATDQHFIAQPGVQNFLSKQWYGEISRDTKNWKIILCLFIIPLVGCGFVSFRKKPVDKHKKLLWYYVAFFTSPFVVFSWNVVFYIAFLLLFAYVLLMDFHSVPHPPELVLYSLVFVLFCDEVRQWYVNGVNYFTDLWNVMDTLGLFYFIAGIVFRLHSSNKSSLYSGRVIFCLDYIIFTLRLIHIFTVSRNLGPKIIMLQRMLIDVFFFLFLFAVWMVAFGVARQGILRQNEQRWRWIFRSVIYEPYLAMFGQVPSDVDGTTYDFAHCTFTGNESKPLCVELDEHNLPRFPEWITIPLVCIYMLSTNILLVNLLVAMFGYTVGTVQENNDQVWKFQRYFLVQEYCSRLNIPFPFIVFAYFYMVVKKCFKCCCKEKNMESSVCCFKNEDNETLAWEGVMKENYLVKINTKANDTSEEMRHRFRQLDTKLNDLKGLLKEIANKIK

The IC50 is the concentration at which inhibition is half-maximal. For `O=C(c1sc(-c2cccc(F)c2)nc1O)N1CC2(CC2)CO1` [Example 28, [2-(3-fluorophenyl)-4-hydroxy-1,3-thiazol-5-yl](5-oxa-6-azaspiro[2.4]heptan-6-yl) methanone], the half-life at 1 μM in data set [1] worked out at 61 min; in data set [3] it was 73 min. The IC50 was 0.086 µM on human TRPM8 [2] (setting [5]), 0.143 µM at human TRPM8 [2] (setting [6]) and 54 nM against human TRPM8 [4].

Regarding `O=C(c1sc(-c2ccccc2O)nc1O)C1CCCO1` (stereo not drawn) [Example 6, [4-hydroxy-2-(2-hydroxyphenyl)-1,3-thiazol-5-yl](oxolan-2-yl)methanone], the half-life at 1 μM turned out to be 33 min in data set [1] and 56 min in data set [3]. Also, the 50% inhibitory concentration (IC50) worked out at 0.401 µM at human TRPM8 [2] (setting [5]), 0.452 µM at human TRPM8 [2] (setting [6]) and 230 nM at human TRPM8 [4].

For `O=C(c1sc(-c2cccc(F)c2)nc1O)n1cccn1` [Example 26, [2-(3-fluorophenyl)-4-hydroxy-1,3-thiazol-5-yl](1H-pyrazol-1-yl)methanone], the half-life at 1 μM in data set [1] was determined as 86 min; in data set [3], 89 min. Besides, the IC50 worked out at 1.65 µM at human TRPM8 [2] (setting [5]), 1.32 µM at human TRPM8 [2] (setting [6]) and 1320 nM against human TRPM8 [4].
